Data taken from PubChem BioAssay (NCI).
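Values below derive from 48-hour exposures of cells grown in 96-well plates, with endpoints linearly interpolated between the two concentrations bracketing the appropriate inhibition level. TGI is the concentration that stops growth completely.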

How the values were obtained:
Assay in all cases: NCI anticancer screen, dose series, 48 h
A549 NSCLC = tested on: A549 NSCLC
ACHN renal = tested on: ACHN renal
BT-549 breast = tested on: BT-549 breast
CAKI-1 renal = tested on: CAKI-1 renal
CCRF-CEM leukemia = tested on: CCRF-CEM leukemia
COLO 205 colon = tested on: COLO 205 colon
DU-145 prostate = tested on: DU-145 prostate
EKVX NSCLC = tested on: EKVX NSCLC
HCC-2998 colon = tested on: HCC-2998 colon
HCT-116 colon = tested on: HCT-116 colon
HOP-62 NSCLC = tested on: HOP-62 NSCLC
HOP-92 NSCLC = tested on: HOP-92 NSCLC
HT29 colon = tested on: HT29 colon
IGROV1 ovarian = tested on: IGROV1 ovarian
K-562 leukemia = tested on: K-562 leukemia
KM12 colon = tested on: KM12 colon
LOX IMVI melanoma = tested on: LOX IMVI melanoma
M14 melanoma = tested on: M14 melanoma
MCF7 breast = tested on: MCF7 breast
MDA-MB-231 breast = tested on: MDA-MB-231 breast
MDA-MB-435 = tested on: MDA-MB-435
MDA-N = tested on: MDA-N
MOLT-4 leukemia = tested on: MOLT-4 leukemia
NCI-H226 lung = tested on: NCI-H226 lung
NCI-H23 lung = tested on: NCI-H23 lung
NCI-H460 lung = tested on: NCI-H460 lung
NCI/ADR-RES ovarian = tested on: NCI/ADR-RES ovarian
OVCAR-3 ovarian = tested on: OVCAR-3 ovarian
OVCAR-4 ovarian = tested on: OVCAR-4 ovarian
OVCAR-5 ovarian = tested on: OVCAR-5 ovarian
OVCAR-8 ovarian = tested on: OVCAR-8 ovarian
PC-3 prostate = tested on: PC-3 prostate
RPMI-8226 leukemia = tested on: RPMI-8226 leukemia
RXF 393 renal = tested on: RXF 393 renal
SF-268 CNS = tested on: SF-268 CNS
SF-295 CNS = tested on: SF-295 CNS
SF-539 CNS = tested on: SF-539 CNS
SK-MEL-2 melanoma = tested on: SK-MEL-2 melanoma
SK-MEL-28 melanoma = tested on: SK-MEL-28 melanoma
SK-MEL-5 melanoma = tested on: SK-MEL-5 melanoma
SK-OV-3 ovarian = tested on: SK-OV-3 ovarian
SN12C renal = tested on: SN12C renal
SNB-19 CNS = tested on: SNB-19 CNS
SNB-75 CNS = tested on: SNB-75 CNS
SW-620 colon = tested on: SW-620 colon
T-47D breast = tested on: T-47D breast
TK-10 renal = tested on: TK-10 renal
U251 CNS = tested on: U251 CNS
UACC-257 melanoma = tested on: UACC-257 melanoma
UACC-62 melanoma = tested on: UACC-62 melanoma
UO-31 renal = tested on: UO-31 renal
786-0 renal = tested on: 786-0 renal
HCT-15 colon = tested on: HCT-15 colon
HL-60(TB) leukemia = tested on: HL-60(TB) leukemia
HS 578T breast = tested on: HS 578T breast
MALME-3M melanoma = tested on: MALME-3M melanoma
NCI-H522 lung = tested on: NCI-H522 lung
SR leukemia = tested on: SR leukemia

Question: What does the source list for Cc1ccc(S(=O)(=O)N2c3ccccc3[C@H]3CCc4c([nH]c5ccccc45)[C@H]32)cc1?
Answer: TGI (A549 NSCLC): > 100 µM; TGI (ACHN renal): > 100 µM; TGI (BT-549 breast): > 100 µM; TGI (CAKI-1 renal): > 100 µM; TGI (CCRF-CEM leukemia): > 100 µM; TGI (COLO 205 colon): > 100 µM; TGI (DU-145 prostate): > 100 µM; TGI (EKVX NSCLC): > 100 µM; TGI (HCC-2998 colon): > 100 µM; TGI (HCT-116 colon): > 100 µM; TGI (HOP-62 NSCLC): > 100 µM; TGI (HOP-92 NSCLC): > 100 µM; TGI (HT29 colon): > 100 µM; TGI (IGROV1 ovarian): > 100 µM; TGI (K-562 leukemia): > 100 µM; TGI (KM12 colon): > 100 µM; TGI (LOX IMVI melanoma): > 100 µM; TGI (M14 melanoma): > 100 µM; TGI (MCF7 breast): > 100 µM; TGI (MDA-MB-231 breast): > 100 µM; TGI (MDA-MB-435): > 100 µM; TGI (MDA-N): > 100 µM; TGI (MOLT-4 leukemia): > 100 µM; TGI (NCI-H226 lung): > 100 µM; TGI (NCI-H23 lung): > 100 µM; TGI (NCI-H460 lung): > 100 µM; TGI (NCI/ADR-RES ovarian): > 100 µM; TGI (OVCAR-3 ovarian): > 100 µM; TGI (OVCAR-4 ovarian): > 100 µM; TGI (OVCAR-5 ovarian): > 100 µM; TGI (OVCAR-8 ovarian): > 100 µM; TGI (PC-3 prostate): > 100 µM; TGI (RPMI-8226 leukemia): > 100 µM; TGI (RXF 393 renal): > 100 µM; TGI (SF-268 CNS): > 100 µM; TGI (SF-295 CNS): > 100 µM; TGI (SF-539 CNS): > 100 µM; TGI (SK-MEL-2 melanoma): > 100 µM; TGI (SK-MEL-28 melanoma): > 100 µM; TGI (SK-MEL-5 melanoma): > 100 µM; TGI (SK-OV-3 ovarian): > 100 µM; TGI (SN12C renal): > 100 µM; TGI (SNB-19 CNS): > 100 µM; TGI (SNB-75 CNS): > 100 µM; TGI (SW-620 colon): > 100 µM; TGI (T-47D breast): > 100 µM; TGI (TK-10 renal): > 100 µM; TGI (U251 CNS): > 100 µM; TGI (UACC-257 melanoma): > 100 µM; TGI (UACC-62 melanoma): > 100 µM; TGI (UO-31 renal): > 100 µM

Question: Which TGI (786-0 renal) does the source give for CC1C(=NO)C(C)C(c2ccccc2)N(N=O)C1c1ccccc1 (stereo unspecified) here?
Answer: 42.7 µM

Question: And the TGI (A549 NSCLC)?
Answer: 40.7 µM

Question: And the TGI (ACHN renal)?
Answer: 45.7 µM

Question: What about the TGI (BT-549 breast) of the same compound?
Answer: 89.8 µM

Question: What about the TGI (CCRF-CEM leukemia) of the same compound?
Answer: 84.5 µM

Question: What about the TGI (COLO 205 colon) of the same compound?
Answer: 31.5 µM

Question: What about the TGI (DU-145 prostate) of the same compound?
Answer: 90.8 µM

Question: What about the TGI (EKVX NSCLC) of the same compound?
Answer: 81.8 µM

Question: What about the TGI (HCC-2998 colon) of the same compound?
Answer: 33.8 µM

Question: What about the TGI (HCT-116 colon) of the same compound?
Answer: 33.3 µM

Question: And the TGI (HCT-15 colon)?
Answer: 31.9 µM

Question: What about the TGI (HL-60(TB) leukemia) of the same compound?
Answer: 88.6 µM

Question: What about the TGI (HOP-62 NSCLC) of the same compound?
Answer: 41.6 µM

Question: And the TGI (HOP-92 NSCLC)?
Answer: 49.3 µM

Question: What about the TGI (HS 578T breast) of the same compound?
Answer: 36.7 µM

Question: What about the TGI (HT29 colon) of the same compound?
Answer: 33.8 µM

Question: And the TGI (IGROV1 ovarian)?
Answer: 52.9 µM

Question: And the TGI (K-562 leukemia)?
Answer: > 100 µM

Question: What about the TGI (KM12 colon) of the same compound?
Answer: 29.8 µM

Question: What about the TGI (LOX IMVI melanoma) of the same compound?
Answer: 29.3 µM

Question: And the TGI (M14 melanoma)?
Answer: 29.5 µM

Question: And the TGI (MALME-3M melanoma)?
Answer: 34.6 µM

Question: What about the TGI (MCF7 breast) of the same compound?
Answer: > 100 µM

Question: And the TGI (MDA-MB-231 breast)?
Answer: 32.9 µM

Question: What about the TGI (MDA-MB-435) of the same compound?
Answer: 44.8 µM

Question: What about the TGI (MDA-N) of the same compound?
Answer: 36.3 µM

Question: And the TGI (MOLT-4 leukemia)?
Answer: 44.6 µM

Question: What about the TGI (NCI-H226 lung) of the same compound?
Answer: 55.2 µM

Question: And the TGI (NCI-H23 lung)?
Answer: 77.1 µM

Question: And the TGI (NCI-H460 lung)?
Answer: 32.1 µM

Question: And the TGI (NCI-H522 lung)?
Answer: 34.5 µM

Question: What about the TGI (NCI/ADR-RES ovarian) of the same compound?
Answer: 37 µM

Question: And the TGI (OVCAR-3 ovarian)?
Answer: 65.7 µM

Question: What about the TGI (OVCAR-4 ovarian) of the same compound?
Answer: 54.4 µM

Question: What about the TGI (OVCAR-8 ovarian) of the same compound?
Answer: 41.5 µM

Question: And the TGI (PC-3 prostate)?
Answer: > 100 µM

Question: What about the TGI (RXF 393 renal) of the same compound?
Answer: 32.7 µM

Question: What about the TGI (SF-268 CNS) of the same compound?
Answer: 35.7 µM

Question: And the TGI (SF-295 CNS)?
Answer: 29.5 µM

Question: And the TGI (SF-539 CNS)?
Answer: 26.5 µM

Question: What about the TGI (SK-MEL-2 melanoma) of the same compound?
Answer: 39.5 µM

Question: And the TGI (SK-MEL-28 melanoma)?
Answer: 32.3 µM

Question: And the TGI (SK-MEL-5 melanoma)?
Answer: 33.1 µM

Question: What about the TGI (SK-OV-3 ovarian) of the same compound?
Answer: 22.7 µM

Question: What about the TGI (SN12C renal) of the same compound?
Answer: 28.8 µM

Question: And the TGI (SNB-19 CNS)?
Answer: 50.5 µM

Question: And the TGI (SNB-75 CNS)?
Answer: 82 µM

Question: What about the TGI (SR leukemia) of the same compound?
Answer: 45.7 µM

Question: And the TGI (SW-620 colon)?
Answer: 42 µM

Question: What about the TGI (T-47D breast) of the same compound?
Answer: 38.9 µM

Question: And the TGI (TK-10 renal)?
Answer: 55.7 µM

Question: And the TGI (U251 CNS)?
Answer: 35.4 µM

Question: What about the TGI (UACC-257 melanoma) of the same compound?
Answer: 54.8 µM

Question: What about the TGI (UACC-62 melanoma) of the same compound?
Answer: 27.2 µM

Question: And the TGI (UO-31 renal)?
Answer: 39.1 µM
